# pIC50, pKi: −log10 of the molar value. “Also recorded” adds a separate entry of the source. Counter-ions that a name gives are not always drawn.
# Tests used:
# [1] = tested on: ACE2; experiment: ACE2 expression in B16F10 cells by real-time RT-PCR; format: cell-based, mouse; conditions: 10 ng/μl DIZE, 48 hours, FIG. 8
# Protocol: B16F10 mouse melanoma cells were incubated with 10 ng/μl diminazene aceturate (DIZE, ACE2 activator) for 48 hours and the expression of ACE2 was quantified by real-time RT-PCR; *p<0.05.
# [2] = tested on: tyrosinase (TYR); experiment: Tyrosinase (TYR) expression in B16F10 cells by real-time RT-PCR; format: cell-based, mouse; conditions: 1 nM aMSH + 10 ng/μl DIZE, 48 hours, FIG. 7; dihydrochloride
# Protocol: B16F10 mouse melanoma cells were incubated with 1 nM aMSH, 10 ng/μl diminazene aceturate (DIZE, ACE2 activator) or a combination of both for 48 hours and the expression of the melanin-synthesizing enzyme tyrosinase (TYR) was quantified by real-time RT-PCR; **p<0.01; *p<0.05.
# B16F10 mouse melanoma cells were incubated with 1 nM aMSH, 10 ng/μl diminazene aceturate (DIZE, ACE2 activator) or a combination of both for 48 hours and the expression of the melanin-synthesizing enzyme tyrosinase (TYR) was quantified by real-time RT-PCR.
# [3] = biological target: T1, ACE2 (Homo sapiens, UniProt Q9BYF1); conditions: in vitro and in vivo; Shenoy et al; cited from earlier work
# Target sequence in this assay (Q9BYF1 18-805, species assumed): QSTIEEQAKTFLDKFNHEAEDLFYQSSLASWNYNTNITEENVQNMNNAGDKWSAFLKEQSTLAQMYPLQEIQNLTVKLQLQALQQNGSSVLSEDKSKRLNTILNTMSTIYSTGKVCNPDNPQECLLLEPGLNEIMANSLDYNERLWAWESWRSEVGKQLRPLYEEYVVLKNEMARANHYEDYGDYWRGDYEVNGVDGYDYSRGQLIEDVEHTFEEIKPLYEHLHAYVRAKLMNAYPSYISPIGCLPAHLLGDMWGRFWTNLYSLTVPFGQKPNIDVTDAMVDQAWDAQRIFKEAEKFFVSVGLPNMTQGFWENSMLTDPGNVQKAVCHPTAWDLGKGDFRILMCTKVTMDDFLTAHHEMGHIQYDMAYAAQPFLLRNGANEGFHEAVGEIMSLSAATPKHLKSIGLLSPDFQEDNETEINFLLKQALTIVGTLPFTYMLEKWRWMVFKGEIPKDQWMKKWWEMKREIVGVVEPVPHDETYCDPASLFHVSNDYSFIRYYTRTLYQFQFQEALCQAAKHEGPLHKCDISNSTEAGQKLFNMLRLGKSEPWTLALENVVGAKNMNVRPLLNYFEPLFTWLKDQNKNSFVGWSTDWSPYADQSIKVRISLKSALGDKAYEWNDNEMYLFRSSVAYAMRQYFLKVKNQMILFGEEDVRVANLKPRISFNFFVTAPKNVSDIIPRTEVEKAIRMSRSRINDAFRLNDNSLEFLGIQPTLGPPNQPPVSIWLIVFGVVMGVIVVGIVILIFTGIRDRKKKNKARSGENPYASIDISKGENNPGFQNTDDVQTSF
# [4] = tested on: B16F10 mouse melanoma cells; experiment: Cell culture assay for melanogenesis in B16F10 melanoma cells; format: cell-based
# Description: FIG. 2: Melanogenesis in B16F10 melanoma cells stimulated with α-MSH1-13 and α-MSH1-12. *** p<0.001 compared to control without α-MSH, +++, +p<0.001, p<0.05 α-MSH1-12 compared to the same concentration of α-MSH1-13.
# In wild-type mice, the inventors further confirmed previous studies in humans (Ham-ming et al., 2004, Grzegrzolka et al., 2013) showing that ACE2 is expressed in the skin.
# [5] = tested on: human abdominal skin biopsies; experiment: Fontana-Masson melanin staining in human abdominal skin biopsies; format: cell-based; conditions: FIG. 5
# Protocol: FIG. 5: ACE2 limits the efficiency of αMSH1-13 in human skin; Fontana-Masson staining in human abdominal skin biopsies. Melanin was stained black by Fontana-Masson staining in human abdominal skin biopsies after treatment with vehicle, 10 nM αMSH1-13, or 10 nM αMSH1-13+100 nM of the ACE2-Inhibitor MLN476.
# (§1) Biopsies were treated with vehicle, 10 nM αMSH1-13, 10 nM αMSH1-13+100 nM of the ACE2-Inhibitor MLN4760, or 100 nM MLN4760 alone.
# [6] = tested on: Tyrosinase; experiment: Tyrosinase mRNA expression in human abdominal skin biopsies; format: cell-based; conditions: for tyrosinase mRNA expression: FIG. 4
# Protocol: FIG. 4: ACE2 limits the efficiency of αMSH1-13 in human skin; Tyrosinase expression. Tyrosinase (melanin synthesizing enzyme) mRNA expression was measured in human abdominal skin biopsies after treatment with vehicle, 10 nM αMSH1-13, 10 nM αMSH1-13+100 nM of the ACE2-Inhibitor MLN4760, or 100 nM MLN4760 alone.
# as §1
# [7] = biological target: T1, ACE2; conditions: ACE2 inhibitor; cited from earlier work
# Target sequence in this assay (Q9BYF1 18-805, species assumed): as above
# [8] = biological target: T1, ACE2; design: purchased Enzo life sciences, Plymouth meeting, PA; conditions: Kulemina and Ostrov; cited from earlier work
# Target sequence in this assay (Q9BYF1 18-805): as the sequence (Q9BYF1 18-805, species assumed) above
# [9] = biological target: T1, ACE2; conditions: Hernandez Prada et al; cited from earlier work
# Target sequence in this assay (Q9BYF1 18-805, species assumed): as above
# [10] = biological target: T1, ACE2; conditions: Mores et al; read-out: Ki value toward ACE2; cited from earlier work
# Target sequence in this assay (Q9BYF1 18-805, species assumed): as above
compound,measurement,setting,value
"N=C(N)c1ccc(/N=N/Nc2ccc(C(=N)N)cc2)cc1 [DIZE, 4-[2-(4-carbamimidoylphenyl)iminohydrazinyl]benzenecarboximidamide dihydrochloride]",ACE2 expression,[1],stimulates ACE2 expression
same,"tyrosinase (TYR) expression, effect on αMSH stimulation",[2],inhibits the stimulating effect of aMSH; also recorded: inhibits the stimulating effect of αMSH
same,enhancement of the enzymatic activity of ACE2,[3],enhance the enzymatic activity of ACE2
"CC(C)C[C@H](N[C@@H](Cc1cncn1Cc1cc(Cl)cc(Cl)c1)C(=O)O)C(=O)O [MLN-4760, (2S)-2-[[(1S)-1-carboxy-2-[3-[(3,5-dichlorophenyl)methyl]imidazol-4-yl]ethyl]amino]-4-methylpentanoic acid]",effect on the ACE2-mediated inhibition of α-MSH1-13 melanogenic effect,"[4]; B16F10 cells, α-MSH1-13 + human recombinant ACE2, FIG. 3",inhibits the effect of ACE2
same,"melanin levels (Fontana-Masson staining), effect on αMSH1-13 increase",[5]; 10 nM αMSH1-13 + 100 nM ACE2 inhibitor,This effect is further increased by ACE2 inhibition
same,"tyrosinase mRNA expression, effect on αMSH1-13 stimulation","[6]; 10 nM αMSH1-13 + 100 nM MLN4760, FIG. 4",This effect is increased by ACE2 inhibition
same,tyrosinase mRNA expression,[6]; 100 nM MLN4760 alone,ACE2 inhibition alone already stimulates tyrosinase expression
same,pIC50,[7],9.30
"Cc1ccc(S(=O)(=O)Oc2ccc3oc4c(CO)ccc(NCCN(C)C)c4c(=O)c3c2)cc1 [XNT, [8-(2-dimethylaminoethylamino)-5-(hydroxymethyl)-9-oxoxanthen-2-yl]4-methyl-benzenesulfonate]",increase of the velocity of the enzyme (rate of catalysis),[8],approximately twofold
same,enhancement of ACE2 activity,[9],enhance ACE2 activity in a dose-dependent manner
CC(=O)NC(Cc1c[nH]cn1)C(=O)N1CCCC1P(=O)(O)CC(Cc1cc(-c2ccccc2)no1)C(=O)O (stereo not shown) [compound 41],pKi,[10],9.40
O=C1OC2(c3ccc(O)cc3Oc3cc(O)ccc32)c2cccc3cccc1c23 [resorcinolnaphthalein],enhancement of ACE2 activity,[9],enhance ACE2 activity in a dose-dependent manner
human recombinant ACE2: human recombinant angiotensin-converting enzyme 2,effect of added ACE2 on melanogenic activity of α-MSH1-13,"[4]; B16F10 cells, with α-MSH1-13, FIG. 3 upper panel",Inhibition of the melanogenic effect of α-MSH1-13; also recorded: reduces its melanogenic activity
α-MSH1-12: expected ACE2 digestion product of α-MSH1-13 (SYSMEHFRWGKP),melanogenic activity relative to α-MSH1-13,"[4]; B16F10 mouse melanoma cells, FIG. 2",at least 100 times less active
"α-MSH1-13: α-melanocyte stimulating hormone, 13-amino-acid peptide hormone",melanin levels (Fontana-Masson staining),[5]; 10 nM αMSH1-13 vs vehicle,increases melanin levels
same,tyrosinase mRNA expression,[6]; 10 nM αMSH1-13 vs vehicle,stimulates tyrosinase expression

# From patent US11337909B2, “Methods for modulating pigmentation by angiotensin-converting enzyme 2 modulation” (Max-Delbrück-Centrum für Molekulare Medizin in der …, priority 2017, dated 2022)
